From article PMC11855827, “High-Throughput Screening of Five Compound Libraries for Anthelmintic Activity and Toxicity Leads to the Discovery of Two Flavonoid Compounds” (International Journal of Molecular Sciences, 2025)
Where “and” joins values, the source holds several entries; their conditions need not be identical. Equal values may be shown once. Read-outs that look alike come from different tables or passages of the source.

System: C. elegans
[1] = Table S2, C. elegans SS assay, 110 μM, 0 h, averages of 4 data points
[2] = Table S2, C. elegans SS assay, 110 μM, 24 h, averages of 4 data points

Structure (SMILES) | Percentage of motility inhibition 0 h [1] [%] | Percentage of motility inhibition 24 h [2] | Percentage of motility inhibition 0 h (110 µM) [%] | Percentage of motility inhibition 24 h (110 µM) [%]
C=C1C[C@@]23CC[C@H]4[C@@](C)(CCC[C@@]4(C)C(=O)O)[C@@H]2CC[C@]1(O[C@@H]1O[C@H](CO)[C@@H](O)[C@H](O)[C@H]1O[C@@H]1O[C@H](CO)[C@@H](O)[C@H](O)[C@H]1O)C3 [Steviolbioside] | 10 | 5% |  | 
CN[C@@H]1[C@H](O[C@H]2[C@H](O[C@H]3[C@H](O)[C@@H](O)[C@H](N=C(N)N)[C@@H](O)[C@@H]3N=C(N)N)O[C@@H](C)[C@]2(O)C=O)O[C@@H](CO)[C@H](O)[C@H]1O.CN[C@@H]1[C@H](O[C@H]2[C@H](O[C@H]3[C@H](O)[C@@H](O)[C@H](N=C(N)N)[C@@H](O)[C@@H]3N=C(N)N)O[C@@H](C)[C@]2(O)C=O)O[C@@H](CO)[C@H](O)[C@H]1O.O=S(=O)(O)O.O=S(=O)(O)O.O=S(=O)(O)O [Streptomycin (sulfate)] | 31 | 26% |  | 
CC(=O)[N-]S(=O)(=O)c1ccc(N)cc1.[Na+] [Sulfacetamide (Sodium)] | 33 | 6% |  | 
Nc1ccc(S(=O)(=O)Nc2cncc(Cl)n2)cc1 [Sulfaclozine] | 3 | 1% |  | 
Nc1ccc(S(=O)(=O)[N-]c2nccs2)cc1.[Na+] [Sulfathiazole (sodium)] | 15 | 6% |  | 
Cc1cc(NS(=O)(=O)c2ccc(N)cc2)nc(C)n1 [Sulfisomidin] | 26 | 10% |  | 
CNCC(O)c1ccc(O)cc1.Cl (centres unmarked) [Synephrine (hydrochloride)] | 0 | 4% |  | 
CC(=O)OC[C@]12C[C@H](OC(=O)CC(C)C)C(C)=C[C@H]1O[C@@H]1[C@H](O)[C@@H](OC(C)=O)[C@@]2(C)[C@]12CO2 [T-2 Toxin] |  |  | 11 | 2
Cc1ccc(CCCO)c(NCc2ccc3nc(NCCCN4CCOCC4)n(Cc4nc(C)ccc4O)c3c2)c1 [TMC353121] | 25 | 4% |  | 
C=C1CC[C@]2(C)CC[C@]3(C)[C@H](CC[C@@H]4[C@@]5(C)CC[C@H](O)C(C)(C)[C@@H]5CC[C@]43C)[C@H]2[C@@H]1C [Taraxasterol] | 1 | 2% |  | 
CCN(CC)c1nc2c(S(=O)(=O)c3ccc(Cl)cc3)nnn2c2cc(OC)c(OC)cc12 [Targocil] | 21 | 11% |  | 
C[C@H](CCC(=O)NCCS(=O)(=O)[O-])[C@H]1CC[C@H]2[C@@H]3CC[C@@H]4C[C@H](O)CC[C@]4(C)[C@H]3C[C@H](O)[C@]12C.[Na+] [Taurodeoxycholic acid (sodium hydrate)] | 8 | 3% |  | 
C[C@@H]1O[C@@H](Oc2cc(O)c3c(c2)O[C@H](c2ccc(O)c(O)c2)[C@@H](O)C3=O)[C@H](O)[C@H](O)[C@H]1O [Taxifolin 7‐O‐rhamnoside] | 33 | 12% |  | 
COc1cc(O)c2c(=O)cc(-c3ccccc3)oc2c1 [Tecto chrysin] | 0 | 11% |  | 
COc1c(O[C@@H]2O[C@H](CO[C@@H]3OC[C@@H](O)[C@H](O)[C@H]3O)[C@@H](O)[C@H](O)[C@H]2O)cc2occ(-c3ccc(O)cc3)c(=O)c2c1O [Tectorigenin 7‐O‐Xylosyl Glucoside] | 0 | 1% |  | 
Cn1nnc(-c2ccc(-c3ccc(N4C[C@H](COP(=O)(O)O)OC4=O)cc3F)cn2)n1 [Tedizolid (phosphate)] | 10 | 12% |  | 

Structure (SMILES) | Percentage of motility inhibition 0 h [1] [%] | Percentage of motility inhibition 24 h [2] | Percentage of motility inhibition 0 h (110 µM) [%] | Percentage of motility inhibition 24 h (110 µM) [%]
CC(C)OC(=O)OCOP(=O)(CO[C@H](C)Cn1cnc2c(N)ncnc21)OCOC(=O)OC(C)C.O=C(O)/C=C/C(=O)O [Tenofovir (Disoproxil Fumarate)] | 5 | 1% |  | 
CC(C)OC(=O)OCOP(=O)(CO[C@H](C)Cn1cnc2c(N)ncnc21)OCOC(=O)OC(C)C [Tenofovir (Disoproxil)] | 23 | 7% |  | 
COc1cc(/C=C/C(=O)O[C@H]2[C@H](O)[C@@H](CO)O[C@@]2(CO)O[C@H]2O[C@H](COC(=O)c3ccc(O)cc3)[C@@H](O)[C@H](O)[C@H]2O)cc(OC)c1OC [Tenuifoliside A] | 0 | 15% |  | 
CC1(C)CC[C@]2(C(=O)O)CCC3=C([C@@H](CCl)C[C@@H]4[C@@]5(C)C[C@H](O)[C@H](O)[C@@](C)(C(=O)O)[C@@H]5CC[C@@]34C)[C@@H]2C1 [Tenuigenin] | 11 | 11% |  | 
CC1(O)CCC(C(C)(C)O)CC1.O (centres unmarked) [Terpin (hydrate)] | 9 | 5% |  | 
CN(C)[C@@H]1C(=O)C(C(N)=O)=C(O)[C@@]2(O)C(=O)C3=C(O)c4c(O)cccc4[C@@](C)(O)[C@H]3C[C@@H]12.Cl [Tetracycline (hydrochloride)] | 26 | 11% |  | 
COc1cc2c(cc1OC)C1Cc3ccc4c(c3CN1CC2)OCO4 (centres unmarked) [Tetrahydroepiberberine] | 10 | 3% |  | 
COc1cc2c(cc1OC)C1Cc3ccc(OC)c(OC)c3CN1CC2.Cl (centres unmarked) [Tetrahydropalmatine (hydrochloride)] | 0 | 9% and 7% |  | 
O=C(O[C@@H]1Cc2c(O)cc(O)cc2O[C@@H]1c1cc(=O)c(O)c2c(O)c(O)cc([C@H]3Oc4cc(O)cc(O)c4C[C@H]3O)c2c1)c1cc(O)c(O)c(O)c1 [Theaflavin‐3‐gallate] | 8 | 22% |  | 
O=c1cccc2n1C[C@H]1C[C@@H]2CN2CCCC[C@@H]12 [Thermopsine] | 0 | 2% |  | 
Cc1ncc(C[n+]2csc(CCO)c2C)c(N)n1.Cl.[Cl-] [Thiamine (hydrochloride)] | 2 | 13% |  | 
Cc1ncc(C[n+]2csc(CCO)c2C)c(N)n1.O=[N+]([O-])[O-] [Thiamine nitrate] | 12 | 1% |  | 
C=C[C@]1(C)C[C@@H](OC(=O)CSCCN(CC)CC)[C@]2(C)[C@H](C)CC[C@]3(CCC(=O)[C@H]32)[C@@H](C)[C@@H]1O.O=C(O)/C=C/C(=O)O [Tiamulin (fumarate)] | 9 | 9% |  | 
C/C=C(\C)C(=O)OC1C[C@H]2CC[C@@H](C1)N2C (some centres unmarked) [Tigloidin] | 0 | 0% |  | 
COc1ccc(-c2cc(=O)c3c(O)cc(O[C@@H]4O[C@H](CO)[C@@H](O)[C@H](O)[C@H]4O)cc3o2)cc1 [Tilianin] | 13 | 3% |  | 
